{"source": "PubChem BioAssay AID1996"}
{"conditions": "buffer; pH 7.4; 200.0 µM", "units": {"solubility kinetic": "µg/mL"}}
{"smiles": "Cc1oc(C(C)(C)C)c(CN2CCOCC2)c1C(=O)O.Cl", "solubility kinetic": "> 47.7"}
{"smiles": "CC1(C)C(CC2OCC(CN3CCCCC3)O2)[C@H]2CC[C@@H]1C2", "note": "(stereo not given in full)", "solubility kinetic": 25.9}
{"smiles": "CSCC[C@H](NC(=O)c1cccc(S(=O)(=O)N2CCCCC2)c1)c1nc2ccccc2[nH]1", "solubility kinetic": 1.6}
{"smiles": "Cc1ccc([N+](=O)[O-])cc1NC(=O)C1CCCC1", "solubility kinetic": 9.4}
{"smiles": "COc1ccc(CCNC(=O)CCc2cn(C)c3ccccc23)c(OC)c1", "solubility kinetic": 16.9}
{"smiles": "O=[N+]([O-])c1ccccc1S(=O)(=O)Nc1ncccn1", "solubility kinetic": "> 42"}
{"smiles": "COc1cnc(-c2ccccn2)nc1Oc1cccc(C(F)(F)F)c1", "solubility kinetic": 37.4}
{"smiles": "Fc1ccccc1CNc1ncnc2sccc12", "solubility kinetic": 9.9}
{"smiles": "O=C1C(=O)N(Cc2cccs2)c2ccccc21", "solubility kinetic": "> 36.5"}
{"smiles": "Cc1nc2cccc(C(=O)Oc3ccc([N+](=O)[O-])cc3)c2o1", "solubility kinetic": 10.1}
{"smiles": "CCOC(=O)c1ccc(-n2c(CC)nc3ccccc3c2=O)cc1", "solubility kinetic": 1.4}
{"smiles": "O=C(CCOc1ccccc1)N1CCN(c2ccc(O)cc2)CC1", "solubility kinetic": "> 49"}
{"smiles": "COc1ccc(NC(=O)CCN2CCOCC2)c(OC)c1", "solubility kinetic": "> 44.2"}
{"smiles": "CCCn1c(C(=O)c2ccccc2)nc2ccccc21", "solubility kinetic": 9.7}
{"smiles": "COc1ccc(-c2cc(-c3ccccc3)c(C#N)c(=S)[nH]2)cc1", "solubility kinetic": 3.2}
{"smiles": "O=C(Nc1cccc(O)c1)c1ccccc1[N+](=O)[O-]", "solubility kinetic": 36.3}
{"smiles": "Clc1ccc(C[n+]2cc(-c3ccc(Cl)cc3)n3c2CCC3)cc1.[Cl-]", "solubility kinetic": "> 57"}
{"smiles": "CC(CCc1ccccc1)NS(=O)(=O)c1ccccc1F", "note": "(stereo not given)", "solubility kinetic": 39}
{"smiles": "S=C(NCC1CCCO1)Nc1cccc(Cl)c1", "note": "(stereo not given)", "solubility kinetic": "> 40.6"}
{"smiles": "COc1ccc(NC(=O)COC(=O)CCc2ccc(S(=O)(=O)N3CCOCC3)cc2)cc1Cl", "solubility kinetic": 19.6}
{"smiles": "COc1ccccc1CNCc1cc(=O)oc2c(C)c(C)ccc12", "solubility kinetic": 3.6}
{"smiles": "O=C(c1cc(Cl)nc2ccccc12)N1CCc2ccccc2C1", "solubility kinetic": 34.5}
{"smiles": "Cc1nn(CC(=O)c2ccc(Cl)s2)c(C)c1[N+](=O)[O-]", "solubility kinetic": "> 45"}
{"smiles": "O=C(NCCS(=O)(=O)N1CCCCC1)c1ccccc1", "solubility kinetic": "> 44.5"}
{"smiles": "Cc1cccnc1NC(=O)Nc1ccc(Cl)cc1", "solubility kinetic": 0.7}
{"smiles": "CCN(Cc1cc(=O)[nH]c2ccccc12)C(=O)C(C)C", "solubility kinetic": "> 40.9"}
{"smiles": "COc1ccc(C2C(C(C)=O)=C(C)Nc3ncnn32)c(OC)c1OC", "note": "(stereo not given)", "solubility kinetic": "> 51.7"}
{"smiles": "CCOCCOc1cccc(C(=O)NC(C)c2ccc3ccccc3c2)c1", "note": "(stereo not given)", "solubility kinetic": 1.6}
{"smiles": "C=CCNc1nc(C(=O)OCC(=O)c2ccc(F)cc2)cs1", "solubility kinetic": 11.2}
{"smiles": "Cl.NC(Cc1ccccc1)c1nc2ccccc2[nH]1", "note": "(stereo not given)", "solubility kinetic": 40.3}
{"smiles": "CC1CCN(CCC(=O)Nc2ccc(F)c(F)c2)CC1", "solubility kinetic": "> 42.3"}
{"smiles": "COC(=O)c1cn(Cc2cc(OC)ccc2OC)cc(F)c1=O", "solubility kinetic": "> 48.2"}
{"smiles": "O=C1CCC([N+](=O)[O-])C(c2cccc([N+](=O)[O-])c2)N1", "note": "(stereo not given)", "solubility kinetic": "> 39.8"}
{"smiles": "Cc1ccc(C(C)C)cc1S(=O)(=O)Nc1ccncc1", "solubility kinetic": 3.3}
{"smiles": "CN(C)c1ccc(NC(=O)c2cccc([N+](=O)[O-])c2)c2ccccc12", "solubility kinetic": 15.1}
{"smiles": "COC(=O)C1=C(C)NC(=O)NC1c1ccco1", "note": "(stereo not given)", "solubility kinetic": 27.8}
{"smiles": "Cc1ccc(Sc2ncccc2NC(=O)c2ccccc2Cl)cc1", "solubility kinetic": 2}
{"smiles": "O=C(O)c1cccc([N+](=O)[O-])c1C(=O)Nc1cccc2ccccc12", "solubility kinetic": 39.5}
{"smiles": "CN[C@H]1CC[C@@H](c2ccc(Cl)c(Cl)c2)c2ccccc21", "solubility kinetic": "> 45.9"}
{"smiles": "O=C1NC(=Nc2cccnc2)S/C1=C/c1ccc(F)cc1", "solubility kinetic": 0.7}
{"smiles": "S=C1NCN(Cc2ccccc2)CN1C1CCCCC1", "solubility kinetic": 4.5}
{"smiles": "O=C1CC2c3ccccc3C1C1C(=O)N(Cc3ccccc3)C(=O)C21", "note": "(stereo not given)", "solubility kinetic": "> 49.7"}
{"smiles": "CC1CCCC(NC(=O)COC(=O)COc2ccc(C#N)cc2)C1C", "note": "(stereo not given)", "solubility kinetic": 45.4}
{"smiles": "Cc1ccc(NC(=O)CC(=O)Nc2ccc(C)c(C)c2)cc1C", "solubility kinetic": "< 0.3"}
{"smiles": "O=C(CCc1ccccc1)Nc1cc2c(cc1C(=O)O)OCCCO2", "solubility kinetic": "> 51.2"}
{"smiles": "CC1Cc2ccccc2N1C(=O)Cn1cc([N+](=O)[O-])ccc1=O", "note": "(stereo not given)", "solubility kinetic": "> 47"}
{"smiles": "CCOC(=O)c1ncccc1NC(=O)CC(=O)Nc1cccnc1C(=O)OCC", "solubility kinetic": 58.2}
{"smiles": "COc1cccc(OC)c1C(=O)Nc1ccccc1Sc1ccccc1", "solubility kinetic": 3.6}
{"smiles": "CCOC(=O)c1nc(Nc2cccc(C)c2)c2ccccc2n1", "solubility kinetic": 10.8}
{"smiles": "COc1ccc(OCC2NCCc3cc(OC)c(OC)cc32)cc1", "note": "(stereo not given)", "solubility kinetic": 42}
{"smiles": "Cl.O=C(CN1CCCC1)Nc1ccc(Br)cc1", "solubility kinetic": "> 47.9"}
{"smiles": "COc1ccc(/C(N)=N/OC(=O)CCc2ccccc2)cc1", "solubility kinetic": 9.9}
{"smiles": "CSc1nsc(SCC(=O)N2CCCCC2)n1", "solubility kinetic": "> 43.4"}
{"smiles": "CCCCS(=O)(=O)N1CCC(C(=O)Oc2ccc(Cl)cc2)CC1", "solubility kinetic": 1.7}
{"smiles": "COc1ccccc1-n1ccnc1SCC(=O)NCc1ccco1", "solubility kinetic": 48.4}
{"smiles": "Cc1ccccc1CNC(=O)c1ccc2ccccc2n1", "solubility kinetic": 9.2}
{"smiles": "COCC1CCCN(Cc2nc(-c3ccc4c(c3)OCO4)no2)C1", "note": "(stereo not given)", "solubility kinetic": 43.4}
{"smiles": "Cc1cc(NC(=O)CN(C)C)c([N+](=O)[O-])cc1C", "solubility kinetic": 4.1}
{"smiles": "COc1ccccc1CNC(=O)/C=C/C(=O)O", "solubility kinetic": "> 35.3"}
{"smiles": "Cc1cccc(OCC(O)CN2CCOCC2)c1.Cl", "note": "(stereo not given)", "solubility kinetic": "> 43.2"}
